SMILES strings stand for the structures. Read-outs that look alike come from different tables or passages of the source.

One data set concerns CD34 cells. The data set can be described thus: CD34 cell expansion at Day 14 of the culture. In kind it is cell-based, human. Particulars: 10 μM. The protocol: (§1) For biological testing, the compounds were provided to culture to evaluate their effects on NK cell expansion and differentiation. Specifically, donors of CD34+ cells (StemCell Technology) were thawed and expanded in vitro following NK culture protocol. During the first 14 days of the culture, each CRL compounds was dissolved in DMSO and added to the culture at 10 μM concentration. SR1 (at 10 μM) served as a positive control compound, while DMSO alone without any compound served as a negative control. At the end of the culture on Day 35, cell expansion, natural killer (NK) cell differentiation and cytotoxicity of the cells against K562 tumor cell line were characterized. Due to the large number of the compounds, the testing was performed in two experiments, CRL1-11 and CRL 12-22. The same donors were used for each experiment. Positive and negative controls were also included in both experiments.

For data set [1], the system named is CD34+ cells. Kind of data set: NK cell expansion from CD34+ cells cultured with CRL compounds (three-stage NK culture, Day 35). In kind it is cell-based, human. Particulars: 10 μM; for cell expansion, rank among all the compounds / expansion compared to SR1: Day 35; for expansion, differentiation and cytotoxicity profiles compared to SR1: PNK-007 culture; for expansion compared to SR1: SR1 10 μM positive control.
From the text: (§2) UCB CD34+ cells were cultivated in presence of cytokines including thrombopoietin, SCF, Flt3 ligand, IL-7, IL-15 and IL-2 for 35 days to produce three-stage NK cells, as described in Example 1. Multi-color flow cytometry was used to determine the phenotypic characteristics of three-stage NK cells.
as §1

A further data set deals with NDMM patients. The settings on record: cited from earlier work.
Data set [2] has as its system CD34+ cells. Kind of data set: NK cell differentiation of compound cultured cells (flow cytometry). In kind it is cell-based, human. The settings on record: compared to SR1.
From the text: as §2, §1

The test system of a further data set is K562 tumor cells. Kind of data set: Cytotoxicity assay of compound cultured cells against K562 tumor cells. In kind it is cell-based. The settings on record: 10:1 effector to target ratio; both donors. The protocol:
as §1
Cytotoxicity assay was run using compound cultured cells against K562 tumor cells at 10:1 effector to target ratio (FIG. 5) to evaluate cell functions.

As for `N#Cc1cncc(-c2nc(NCCc3c[nH]c4ccccc34)c3occc3n2)c1` [CRL22, 5-(4-((2-(1H-indol-3-yl)ethyl)amino)furo[3,2-d]pyrimidin-2-yl)nicotinonitrile], the CD34 cell expansion entry in the data set with CD34 cells is on record as “achieved the highest CD34 cell expansion”. Further, in the data set on CD34+ cells [1], the “cell expansion, rank among all the compounds” value is “supported cell expansion the best”; the “expansion, differentiation and cytotoxicity profiles compared to SR1” value is “very similar expansion, differentiation and cytotoxicity profiles as SR1”.

On to `Nc1cccc2c1CN(C1CCC(=O)NC1=O)C2=O` (stereo not shown) [lenalidomide, 3-(4′ aminoisoindoline-1′-one)-1-piperidine-2,6-dione], for which the “ORR (VGPR or better)” value in the data set with NDMM patients (1 year post ASCT) is 48%; in the data set with NDMM patients (2 year post ASCT) it was 36%. Moreover, in the data set with NDMM patients (95% CI 0.46-0.71, p<0.0001), the “hazard ratio for TTP versus placebo” value is 0.57. Also, the “median TTP” value in the data set with NDMM patients (95% CI 44.2-73.3, not accounting for crossover) is 57.3 months.

With `Cc1cncc(-c2nc(NCCc3c[nH]c4ccccc34)c3occc3n2)c1` [CRL20, N-(2-(1H-indol-3-yl)ethyl)-2-(5-methylpyridin-3-yl)furo[3,2-d]pyrimidin-4-amine], the CD34 cell expansion result in the data set on CD34 cells is recorded as “achieved the highest CD34 cell expansion”. Further, in the data set with CD34+ cells [1], the “cell expansion, rank among all the compounds” value is “supported cell expansion the best”; the “expansion, differentiation and cytotoxicity profiles compared to SR1” value was “very similar expansion, differentiation and cytotoxicity profiles as SR1”.

In the case of `CC(C)c1csc2c(NCCc3c[nH]c4ccccc34)nc(-c3cncc(C#N)c3)nc12` [CRL17, 5-(4-((2-(1H-indol-3-yl)ethyl)amino)-7-isopropylthieno[3,2-d]pyrimidin-2-yl)nicotinonitrile], the “CD56+/CD11a+ subpopulation” value in the data set on CD34+ cells [2] was “increased CD56+/CD11a+ subpopulation”. In addition, the “expansion compared to SR1” value with CD34+ cells [1] is given as “slightly less expansion compared to SR1”. Besides, the “killing activities compared to cells cultured with SR1” value in the data set on K562 tumor cells is listed as “increased killing activities of the cells”.

For `CC(C)c1csc2c(NCCc3c[nH]c4ccccc34)nc(-c3cncc(F)c3)nc12` [CRL18, N-(2-(1H-indol-3-yl)ethyl)-2-(5-fluoropyridin-3-yl)-7-isopropylthieno[3,2-d]pyrimidin-4-amine], the “CD56+/CD11a+ subpopulation” value in the data set with CD34+ cells [2] is listed as “increased CD56+/CD11a+ subpopulation”. For the same compound, the “expansion compared to SR1” value with CD34+ cells [1] is reported as “slightly less expansion compared to SR1”. Besides, the “killing activities compared to cells cultured with SR1” value in the data set with K562 tumor cells is on record as “increased killing activities of the cells”.

For the compound `Fc1cncc(-c2nc(NCCc3c[nH]c4ccccc34)c3occc3n2)c1` [CRL19, N-(2-(1H-indol-3-yl)ethyl)-2-(5-fluoropyridin-3-yl)furo[3,2-d]pyrimidin-4-amine], in the data set with CD34 cells, the CD34 cell expansion entry was “achieved the highest CD34 cell expansion”. Moreover, in the data set on CD34+ cells [1], the “cell expansion, rank among all the compounds” value is listed as “supported cell expansion the best”; the “expansion, differentiation and cytotoxicity profiles compared to SR1” value was “very similar expansion, differentiation and cytotoxicity profiles as SR1”.

Turning to `Cc1cncc(-c2nc(NCCc3c[nH]c4ccccc34)c3scc(C(C)C)c3n2)c1` [CRL21, N-(2-(1H-indol-3-yl)ethyl)-7-isopropyl-2-(5-methylpyridin-3-yl)thieno[3,2-d]pyrimidin-4-amine], in the data set with CD34+ cells [2], the “CD56+/CD11a+ subpopulation” value was “increased CD56+/CD11a+ subpopulation”. The “expansion compared to SR1” value with CD34+ cells [1] is “slightly less expansion compared to SR1”. The “killing activities compared to cells cultured with SR1” value in the data set with K562 tumor cells is recorded as “increased killing activities of the cells”.
